In the supplement of paper PMC9912026:

Test system: HT29
Test: pERK immunofluorescence normalised to no-drug reference (=1); higher = more ERK phosphorylation (less pathway inhibition)
Settings: drug treatment time 24 h, EGF time 8 h
Method: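 A375 CRISPRa-EGFR (A375_aEGFR2) or HT29 cells were treated with two-drug dose combinations (vemurafenib, LY3009120, cobimetinib) for 24 h, then stimulated with EGF (100 ng/mL) or mock medium for 8 h. pERK (T202/Y204) was measured by immunofluorescence as the cytosolic population average, normalised to an untreated no-drug reference of the block (=1). Averages of 2 technical replicates. A375 in 5% FBS, HT29 in 10% FBS.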

CCCS(=O)(=O)Nc1ccc(F)c(C(=O)c2c[nH]c3ncc(-c4ccc(Cl)cc4)cc23)c1F [Vemurafenib] + O=C(c1ccc(F)c(F)c1Nc1ccc(I)cc1F)N1CC(O)([C@@H]2CCCCN2)C1 [Cobimetinib]
pERK immunofluorescence normalised
Settings | drug B concentration 0 µM | drug B concentration 0.0001 µM | drug B concentration 0.0003162 µM | drug B concentration 0.001 µM | drug B concentration 0.00316228 µM | drug B concentration 0.01 µM | drug B concentration 0.0316228 µM | drug B concentration 0.1 µM | drug B concentration 0.316228 µM | drug B concentration 1 µM
drug A concentration 0.0316 µM, EGF 0 ng/mL | – | – | – | – | – | – | 0.129 | 0.0998 | 0.0935 | 0.095
drug A concentration 0.0316 µM, EGF 100 ng/mL | – | – | – | – | – | 0.818 | 0.699 | 0.467 | 0.211 | 0.109
drug A concentration 0.1 µM, EGF 0 ng/mL | 0.43 | 0.429 | 0.451 | 0.339 | 0.213 | 0.148 | 0.124 | 0.109 | 0.101 | 0.1
drug A concentration 0.1 µM, EGF 100 ng/mL | 0.824 | 0.844 | 0.967 | 0.948 | 0.882 | 0.755 | 0.699 | 0.437 | 0.212 | 0.112
drug A concentration 0.316228 µM, EGF 0 ng/mL | 0.261 | 0.305 | 0.273 | 0.251 | 0.166 | 0.133 | 0.115 | 0.104 | 0.101 | 0.0973
drug A concentration 0.316228 µM, EGF 100 ng/mL | 0.765 | 0.827 | 0.843 | 0.882 | 0.815 | 0.767 | 0.626 | 0.458 | 0.206 | 0.109
drug A concentration 1 µM, EGF 0 ng/mL | 0.201 | 0.205 | 0.203 | 0.178 | 0.146 | 0.125 | 0.111 | 0.101 | 0.0945 | 0.0941
drug A concentration 1 µM, EGF 100 ng/mL | 0.754 | 0.764 | 0.815 | 0.808 | 0.746 | 0.713 | 0.606 | 0.363 | 0.177 | 0.104
drug A concentration 3.16 µM, EGF 0 ng/mL | 0.162 | 0.165 | 0.171 | 0.144 | 0.134 | 0.119 | 0.113 | 0.0971 | 0.0922 | 0.0932
drug A concentration 3.16 µM, EGF 100 ng/mL | 0.69 | 0.73 | 0.731 | 0.772 | 0.663 | 0.562 | 0.414 | 0.215 | 0.115 | 0.093
drug A concentration 10 µM, EGF 0 ng/mL | 0.187 | 0.177 | 0.202 | 0.185 | 0.158 | 0.133 | 0.106 | 0.091 | 0.0912 | 0.0919
drug A concentration 10 µM, EGF 100 ng/mL | 0.541 | 0.517 | 0.524 | 0.486 | 0.441 | 0.323 | 0.187 | 0.107 | 0.0914 | 0.09
